Experimental data taken from US9714249B2 (Novartis AG, priority 2013, dated 2017).

Columns and labels:
MV-4-11 cells = test: Cell growth inhibition assay (CellTiter-Glo), MV-4-11; format: cell-based, human; settings: MV-4-11, 4 days; for GI50: half-maximal growth inhibition; for MV-4-11 TGI: total growth inhibition
Method: (§1) The human leukemia cell lines MV-4-11, THP-1 and K-562 were employed to characterize the effect of BET inhibitors on cellular proliferation and viability. Cells were obtained from the American Type Culture Collection (ATCC) and cultured at 37° C. in a humidified 5% CO2 incubator in the following media: MV-4-11: DMEM high glucose (Animed #1-26F01-I), 10% FCS (Animed #2-01F26-I), 4 mM L-Glutamine (Animed #5-10K50), 1 mM Sodium Pyruvate (Animed # G03625P), 1× Penicillin-Streptomycin (Animed # F12478P); K-562: Iscove's MEM (Animed #1-28F16-I), 10% FCS (Animed #2-01F26-I), 4 mM L-Glutamine (Animed #5-10K50), 1× Penicillin-Streptomycin (Animed # F12478P); THP-1: RPMI-1640 (Animed #1-41F01-I), 10% FCS (Animed #2-01F26-I), 2 mM L-Glutamine (Animed #5-10K50), 10 mM HEPES (Animed #5-31F100), 1 mM Sodium Pyruvate (Animed # G03625P), 1× Penicillin-Streptomycin (Animed # F12478P). The AML lines MV-4-11 and THP-1 are very sensitive to BET inhibitors and show massive cell death upon BET inhibition (Zuber et al., Nature, 478 (2011), 524-8). Compound-mediated suppression of cell proliferation/viability was assessed by quantification of cellular ATP levels using the CellTiter-Glo (CTG) reagent (Promega). Briefly, cells were seeded in 20 μl fresh medium into 384-well plates, followed by addition of 5 μl medium containing compound dilutions at 5-fold their final intended concentration. Dose-response effects were assessed by 3-fold serial dilutions of the test compound, starting at 10 μM. Following incubation of the cells for 4 days at 37° C. and 5% CO2, the effect of inhibitors on cell viability was quantified following addition of 20 μl CTG and luminescence quantification (integration time: 100 ms) as per vendor manual, using a correspondingly equipped Tecan M200 multi-mode platereader (TECAN, Switzerland). For data analysis, the assay background value determined in wells containing medium, but no cells, was subtracted from all data points. To enable differentiation of cytotoxic from cytostatic compounds, the number of viable cells is assessed relative to that observed at the time of compound addition using a separate cell plate (day 0). The effect of a particular test compound concentration on cell proliferation/viability is expressed as percentage of the background- and day 0-corrected luminescence reading obtained for cells treated with vehicle only (DMSO, 0.1% final concentration), which is set as 100%, whereas that luminescence reading for wells containing medium is set as −100%. Compound concentrations leading to half-maximal (1050) and total growth inhibition (TGI) were determined using standard four parameter curve fitting.

K-562 cells = test: Cell growth inhibition assay (CellTiter-Glo), K-562; format: cell-based, human; settings: K-562, 4 days; for GI50: half-maximal growth inhibition; for K-562 TGI: total growth inhibition
Method: as §1

THP-1 cells = test: Cell growth inhibition assay (CellTiter-Glo), THP-1; format: cell-based, human; settings: THP-1, 4 days; for GI50: half-maximal growth inhibition; for THP-1 TGI: total growth inhibition
Method: as §1

BRD3 (His-Brd3(20-477)) = BRD3 (His-Brd3(20-477)) (Homo sapiens (Human), UniProt Q15059); test: TR-FRET in-vitro binding assay for BRD3; settings: acetyl-histone H4 peptide
Chain of BRD3 (His-Brd3(20-477)) (Q15059 20-477, species assumed): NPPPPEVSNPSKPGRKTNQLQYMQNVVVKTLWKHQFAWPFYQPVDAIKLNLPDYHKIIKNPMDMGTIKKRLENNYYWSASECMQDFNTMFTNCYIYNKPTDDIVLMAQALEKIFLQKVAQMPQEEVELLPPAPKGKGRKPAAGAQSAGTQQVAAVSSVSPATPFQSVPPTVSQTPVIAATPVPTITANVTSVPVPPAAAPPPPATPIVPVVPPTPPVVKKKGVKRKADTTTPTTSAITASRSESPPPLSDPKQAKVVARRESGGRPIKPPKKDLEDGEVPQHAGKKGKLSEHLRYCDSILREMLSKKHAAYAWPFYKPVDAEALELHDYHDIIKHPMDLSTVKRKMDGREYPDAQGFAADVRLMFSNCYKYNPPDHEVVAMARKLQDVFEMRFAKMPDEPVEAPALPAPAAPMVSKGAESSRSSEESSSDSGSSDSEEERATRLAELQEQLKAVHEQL
Method: All assays were performed in 384 well microtiter plates. Each assay plate contained 8-point serial dilutions for 40 test compounds, plus 16 high- and 16 low controls. Liquid handling and incubation steps were done on an Innovadyne Nanodrop Express equipped with a robotic arm (Thermo CatX, Perkin Elmer/Caliper Twister II) and an incubator (Liconic STX40, Thermo Cytomat 2C450). The assay plates were prepared by addition of 50 nl per well of compound solution in 90% DMSO HummingBird nanodispenser (Zinsser Analytic). The assay was started by stepwise addition of 4.5 μl per well of bromo domain protein (50 mM HEPES, pH 7.5, 0.005% Tween20, 0.1% BSA, 50 mM NaCl, 45 nM His-Brd2(60-472) or 45 nM His-Brd3(20-477) or 45 nM His-Brd4(44-477) all proteins produced in-house) and 4.5 μl per well of peptide solution (50 mM HEPES, pH 7.5, 0.005% Tween20, 0.1% BSA, 50 mM NaCl, 60 nM acetyl-histone H4 (AcK 5, 8, 12, 16) (Biosyntan GmbH)). Reactions were incubated at 30° C. for 35 minutes. Subsequently 4.5 μl per well detection mix (50 mM HEPES, pH 7.5, 0.005% Tween20, 0.1% BSA, 50 mM NaCl, 3 nM Eu-labeled anti-His6 antibody, 21 nM streptavidin-allophycocyanin) were added. After 35 minutes incubation at 30° C., plates were measured in a Perkin Elmer EnVision multilabel reader. Concentrations causing 50% inhibition (1050) values were determined from percent inhibition values at different compound concentrations by non-linear regression analysis.
Test compounds were dissolved in DMSO (10 mM) and transferred into 1.4 mL flat bottom or V-shaped Matrix tubes carrying a unique 2D matrix. The stock solutions were stored at […] if not used immediately. For the test procedure the vials were defrosted and identified by a scanner whereby a working sheet was generated that guided the subsequent working steps. Compound dilutions were made in 96 well plates. This format enabled the assay of maximally 40 individual test compounds at 8 concentrations (single points) including 4 reference compounds, if desired (known BET inhibitors from the prior art, for this and other assays of the type disclosed herein). The dilution protocol included the production of “pre-dilution plates”, “master plates” and “assay plates”.
Pre-dilution plates: 96 polypropylene well plates were used as pre-dilution plates. A total of 4 pre-dilution plates were prepared including 10 test compounds each on the plate positions A1-A10, one standard compound at A11 and one DMSO control at A12. All dilution steps were done on a HamiltonSTAR robot. Master plates: 30 μL of individual compound dilutions including standard compound and controls of the 4 “pre-dilution plates” were transferred into a 384 “master plate” including the following concentrations 10000, 3003, 1000, 300, 100, 30, 10 and 3 μM, respectively in 90% of DMSO. Assay plates: Identical “assay plates” were then prepared by pipetting 50 nL each of compound dilutions of the “master plates” into 384-well “assay plates” by means of a HummingBird 384-channel dispenser. These plates were used directly for the assay which was performed in a total volume of 13.55 μL. This led to a final compound concentration of 37, 11, 3.7, 1.1, 0.37, 0.11, 0.037 and 0.011 μM and a final DMSO concentration of 0.37% in the assay. Cell Growth Inhibition Assay

GI50 (MV-4-11 cells; Homo sapiens, MV4-11, 96 h) | GI50 (K-562 cells; Homo sapiens, K562, 96 h) | GI50 (THP-1 cells; Homo sapiens, 96 h) | IC50 (BRD3 (His-Brd3(20-477))) | SMILES | MV-4-11 TGI (MV-4-11 cells) | K-562 TGI (K-562 cells) | THP-1 TGI (THP-1 cells) | GI50 (MV-4-11 cells) | GI50 (K-562 cells) | GI50 (THP-1 cells)
0.0246 µM | 0.141 µM | 0.0449 µM | 0.03 µM | Cc1cc(N2C(=O)c3c(C4CC4)nn(C)c3C2c2ccc(Cl)cc2)cn(C)c1=O (centres unmarked) [Example 1, 6-(4-chlorophenyl)-3-cyclopropyl-5-(1,5-dimethyl-6-oxo-1,6-dihydropyridin-3-yl)-1-methyl-5,6-dihydropyrrolo[3,4-c]pyrazol-4(1H)-one] | 0.0412 µM | >10 µM | 0.104 µM |  |  | 
0.0375 µM | 0.268 µM | 0.0901 µM | 0.034 µM | Cc1cc(N2C(=O)c3c(C4CC4)nn(CCO)c3C2c2ccc(Cl)cc2)cn(C)c1=O (centres unmarked) [Example 3, 6-(4-chlorophenyl)-3-cyclopropyl-5-(1,5-dimethyl-6-oxo-1,6-dihydropyridin-3-yl)-1-(2-hydroxyethyl)-5,6-dihydropyrrolo[3,4-c]pyrazol-4(1H)-one] | 0.064 µM | >10 µM | 0.264 µM |  |  | 
0.0205 µM | 0.109 µM | 0.0456 µM | 0.013 µM | COCCn1nc(C2CC2)c2c1C(c1ccc(Cl)cc1)N(c1cc(C)c(=O)n(C)c1)C2=O (centres unmarked) [Example 4, 6-(4-chlorophenyl)-3-cyclopropyl-5-(1,5-dimethyl-6-oxo-1,6-dihydropyridin-3-yl)-1-(2-methoxyethyl)-5,6-dihydropyrrolo[3,4-c]pyrazol-4(1H)-one] | 0.0336 µM | >10 µM | 0.1 µM |  |  | 
0.0538 µM | 0.658 µM | 0.101 µM | 0.082 µM | Cc1cc(N2C(=O)c3c(C4CC4)nn(-c4ccnn4C)c3C2c2ccc(Cl)cc2)cn(C)c1=O (centres unmarked) [Example 5, 6-(4-chlorophenyl)-3-cyclopropyl-5-(1,5-dimethyl-6-oxo-1,6-dihydropyridin-3-yl)-1-(1-methyl-1H-pyrazol-5-yl)-5,6-dihydropyrrolo[3,4-c]pyrazol-4(1H)-one] | 0.1 µM | >10 µM | 0.179 µM |  |  | 
0.0741 µM | 0.558 µM | 0.189 µM | 0.08 µM | Cc1[nH]nc2c1C(=O)N(c1cc(Cl)c(=O)n(C)c1)C2c1ccc(Cl)cc1 (centres unmarked) [Example 6, 5-(5-chloro-1-methyl-6-oxo-1,6-dihydropyridin-3-yl)-6-(4-chlorophenyl)-3-methyl-5,6-dihydropyrrolo[3,4-c]pyrazol-4(2H)-one] | 0.134 µM | >10 µM | 0.352 µM |  |  | 
0.0567 µM | 0.548 µM | 0.104 µM | 0.024 µM | COc1ncccc1-n1nc2c(c1C)C(=O)N(c1cc(Cl)c(=O)n(C)c1)C2c1ccc(Cl)cc1 (centres unmarked) [Example 7b, 5-(5-chloro-1-methyl-6-oxo-1,6-dihydropyridin-3-yl)-6-(4-chlorophenyl)-2-(2-methoxypyridin-3-yl)-3-methyl-5,6-dihydropyrrolo[3,4-c]pyrazol-4(2H)-one] | 0.0824 µM | >10 µM | 0.285 µM |  |  | 
0.117 µM | 0.999 µM | 0.293 µM | 0.14 µM | COc1ncc(-n2nc3c(c2C)C(=O)N(c2cc(Cl)c(=O)n(C)c2)C3c2ccc(Cl)cc2)cn1 (centres unmarked) [Example 8b, 5-(5-chloro-1-methyl-6-oxo-1,6-dihydropyridin-3-yl)-6-(4-chlorophenyl)-2-(2-methoxypyrimidin-5-yl)-3-methyl-5,6-dihydropyrrolo[3,4-c]pyrazol-4(2H)-one] | 0.195 µM | >10 µM | 0.562 µM |  |  | 
0.0394 µM | 0.336 µM | 0.0764 µM | 0.062 µM | Cc1nn(C)c2c1C(=O)N(c1cc(C)c(=O)n(C)c1)C2c1ccc(Cl)cc1 (centres unmarked) [Example 10, 6-(4-chlorophenyl)-5-(1,5-dimethyl-6-oxo-1,6-dihydropyridin-3-yl)-1,3-dimethyl-5,6-dihydropyrrolo[3,4-c]pyrazol-4(1H)-one] | 0.0655 µM | >10 µM | 0.132 µM |  |  | 
0.0186 µM | 0.127 µM | 0.0366 µM | 0.034 µM | Cc1nn(C2CC2)c2c1C(=O)N(c1cc(C)c(=O)n(C)c1)C2c1ccc(Cl)cc1 (centres unmarked) [Example 11, 6-(4-chlorophenyl)-1-cyclopropyl-5-(1,5-dimethyl-6-oxo-1,6-dihydropyridin-3-yl)-3-methyl-5,6-dihydropyrrolo[3,4-c]pyrazol-4(1H)-one] | 0.0294 µM | >10 µM | 0.0822 µM |  |  | 

SMILES | GI50 (MV-4-11 cells; Homo sapiens, MV4-11, 96 h) | GI50 (K-562 cells; Homo sapiens, K562, 96 h) | GI50 (THP-1 cells; Homo sapiens, 96 h) | IC50 (BRD3 (His-Brd3(20-477))) | MV-4-11 TGI (MV-4-11 cells) | K-562 TGI (K-562 cells) | THP-1 TGI (THP-1 cells) | GI50 (MV-4-11 cells) | GI50 (K-562 cells) | GI50 (THP-1 cells)
CNC1=C(C(=N)C2CC2)C(=O)N(c2cc(C)c(=O)n(C)c2)[C@@H]1c1ccc(Cl)cc1 [Example 2] |  |  |  | 0.02 µM | 0.0303 µM | >10 µM | 0.0468 µM | 0.0154 µM | 0.121 µM | 0.0219 µM
COc1ncc(-n2nc(C)c3c2C(c2ccc(Cl)cc2)N(c2cc(Cl)c(=O)n(C)c2)C3=O)cn1 (centres unmarked) [Example 8a, 5-(5-chloro-1-methyl-6-oxo-1,6-dihydropyridin-3-yl)-6-(4-chlorophenyl)-1-(2-methoxypyrimidin-5-yl)-3-methyl-5,6-dihydropyrrolo[3,4-c]pyrazol-4(1H)-one] | 0.141 µM | 0.991 µM | 0.127 µM | 0.12 µM | 0.294 µM | >10 µM | 0.493 µM |  |  | 
